From patent US20060013780A1, “N,N'-dialkyl derivatives of polyhydroxyalkyl alkylenediamines” (priority 2004, published 2006)

Experiments:
[1] = Ross-Miles foam test (modified, ASTM D1173-53); assay type: physicochemical; details: surfactant in water; 0.01 wt % and 0.1 wt %, table does not say which
[2] = Equilibrium surface tension, Kruss K-12 tensiometer with platinum Wilhelmy plate; assay type: physicochemical; details: 25±1° C.; for EST (0.01 WT %, mN/m): 0.01 wt % in water; for EST (0.1 WT %, mN/m): 0.1 wt % in water; for EST (1.0 WT %, mN/m): 1.0 wt % in water
Experimental: Equilibrium surface tensions were determined using a Kruss K-12 tensiometer with a platinum Wilhelmy plate, maintaining the temperature at 25±1° C. by means of a constant temperature circulating bath.

[3] = Dynamic surface tension, maximum bubble pressure method; assay type: physicochemical; details: for DST (0.1 WT %, mN/m) 0.1 b/s / DST (0.1 WT %, mN/m) 10 b/s: 0.1 wt % in distilled and deionized water; for DST (0.1 WT %, mN/m) 0.1 b/s / DST (0.5 WT %, mN/m) 0.1 b/s: 0.1 bubbles/sec; for DST (0.1 WT %, mN/m) 10 b/s / DST (0.5 WT %, mN/m) 10 b/s: 10 bubbles/sec; for DST (0.5 WT %, mN/m) 0.1 b/s / DST (0.5 WT %, mN/m) 10 b/s: 0.5 wt % in distilled and deionized water
Experimental: Solutions in distilled and deionized water of the surfactants of the invention were prepared. […] In a practical sense, high surface creation rates refer to rapid processes such as a spray or roller-applied coating, a high speed printing operation, or the rapid application of an agricultural product or a cleaner.

[4] = Cleaning performance, ASTM D4488-95, reflectance of white vinyl composition tile; details: 0.1% (wt %) surfactant
Text: Although dynamic and equilibrium surface tension as well as foam influence the cleaning ability of a surfactant, other factors also affect cleaning performance. Thus one good way to determine the cleaning ability of a surfactant is to apply a soil to a substrate, clean that substrate with the surfactant of interest and some benchmark surfactants, and compare relative cleaning efficacies in terms of percent soil removal. One method for conducting such testing is described in ASTM D4488-95, “Standard Guide for Testing Cleaning Performance of Products Intended for Use on Resilient Flooring and Washable Walls.” This method was followed according to the particulate and oily soil/vinyl tiles test methodology, with cleaning performance being evaluated by reading average reflectance values (5 readings/tile) of a white vinyl composition tile before and after cleaning (Table 6). The higher the reflectance value the better the cleaning ability of the surfactant.
The cleaning performance of surfactants according to the invention was compared side by side with that of two benchmark surfactants, Neodol 23-6.5 (available from Shell Chemical of Houston, Tex.) and AG 6202 (available from Akzo Nobel of McCook, Ill.), an alcohol ethoxylate and an alkylpolyglucoside surfactant, respectively.

[5] = Aqueous solubility comparison; details: in water
Experimental: Comparison of the aqueous solubilities of several N,N′-dialkyl-N,N′-bis(1-deoxyglucityl)ethylenediamines was performed, with the results as follows:
The ratios of compounds are on a molar basis.

Compound | Ross Miles Final Foam (cm) [1] | Ross Miles Initial Foam (cm) [1] | EST (0.01 WT %, mN/m) [2] | EST (0.1 WT %, mN/m) [2] | EST (1.0 WT %, mN/m) [2] | DST (0.1 WT %, mN/m) 0.1 b/s [3] | DST (0.1 WT %, mN/m) 10 b/s [3] | DST (0.5 WT %, mN/m) 0.1 b/s [3] | DST (0.5 WT %, mN/m) 10 b/s [3] | % SOIL REMOVAL [4] | aqueous solubility in words [5] | dynamic surface tension reduction in words ([3]; Table 4 data, strong at low bubble rates)
CCCCCCCCNC[C@H](O)[C@@H](O)[C@H](O)[C@H](O)CO [N-Octylglucamine] | 0.3 cm | 2.0 cm | 55 mN/m | 35 mN/m | 35 mN/m | 54 mN/m | 65 mN/m | 48 mN/m | 62 mN/m | – | – | –
CCCCCCN(CCN(CCCCCC)C[C@H](O)[C@@H](O)[C@H](O)[C@H](O)CO)C[C@H](O)[C@@H](O)[C@H](O)[C@H](O)CO [DHDGEDA, N,N′-dihexyl-N,N′-bis(1-deoxyglucityl)-1,2-diaminoethane] | 1.5 cm | 3.6 cm | 57 mN/m | 33 mN/m | 30 mN/m | 37 mN/m | 51 mN/m | 30 mN/m | 32 mN/m | 67% | extreme insolubility | –
CCCCCCNC[C@H](O)[C@@H](O)[C@H](O)[C@H](O)CO [N-Hexylglucamine] | 1.0 cm | 2.0 cm | 64 mN/m | 60 mN/m | 52 mN/m | 68 mN/m | 70 mN/m | 55 mN/m | 57 mN/m | – | – | –
CCCCNC[C@H](O)[C@@H](O)[C@H](O)[C@H](O)CO [N-Butylglucamine] | 0.3 cm | 2.5 cm | – | – | ≧50 mN/m | 71 mN/m | 72 mN/m | 70 mN/m | 71 mN/m | – | – | –
CCCCN(CCN(CCCC)C[C@H](O)[C@@H](O)[C@H](O)[C@H](O)CO)C[C@H](O)[C@@H](O)[C@H](O)[C@H](O)CO [DBDGEDA, N,N′-dibutyl-N,N′-bis(1-deoxyglucityl)-1,2-diaminoethane] | 0.5 cm | 1.8 cm | 62 mN/m | 50 mN/m | 47 mN/m | 63 mN/m | 67 mN/m | 56 mN/m | 47 mN/m | 45% | – | moderate to low
N,N′-dioctyl-N,N′-bis(1-deoxyglucityl)ethylenediamine [DODGEDA] | – | – | – | – | – | – | – | – | – | 48% | – | –
